# How the values were obtained:
# [1] = test system: U251 tumors xenografts; assay: U251 xenograft mouse model, tumor growth delay; type: in vivo
# Protocol: U251 cells (5×10^6) were suspended in 0.1 mL of PBS and then injected into the flanks of nu/nu female nude mice. After tumors formed (45±10 mm^3), mice were randomly assigned into one of four groups: DMSO+Sham IR, DMSO+5 Gy IR, NS-123+Sham IR, and NS-123+5 Gy IR. NS-123 was administered as described above. Groups not receiving NS-123 were treated with the same volume of DMSO alone dissolved in 30% propylene glycol. Mouse flanks were irradiated 4 hours following the second injection with 5 Gy (Precision X-Ray, Inc, North Branford, Conn.) given as one fraction or Sham IR. Tumor volumes were measured every other day based on the formula: Volume=length^2×width where length was always the longest dimension.
# Data are presented as average relative tumor volume (RTV), where: RTV[Dayx]=Volume[Dayx]/Volume[Day0]
# The measurement of tumor regrowth was calculated by the time needed to grow to 10× the treatment volume. As per Seo et al, 2005, (Clin. Cancer Res. 11:7499-507), the in vivo radiosensitizer enhancement ratio was defined as the ratio: TNS-123+IR/TDMSO+IR where T is tumor regrowth delay (days)
# To investigate in a more sophisticated model the radiosensitization observed by NS-123 in ZF, a growth delay assay of U251 tumors xenografts in nu/nu nude mice was performed. Mice were treated for 3 consecutive days with either NS-123 or DMSO (i.p.) and received either 5 Gy IR or Sham IR 4 hours after the second injection (see Table at the bottom FIG. 7A). […] Furthermore, they provide additional support for the use of the novel ZF xenograft model as a faster, more economical screening tool for potential in vivo radiosensitizing activity of lead compounds.
# [2] = test system: U251 glioma cell line; assay: Chemical library radiosensitizer screen (MTS assay, paired plates 4 Gy / unirradiated); type: cell-based, human; conditions: U251, 8 hours at 2.5 μM, MTS four days later
# Protocol: Six hundred U251 cells were plated per well in 96 well plates. Cells in each well were then treated with a different compound from the Nanosyn library for 8 hours at 2.5 μM concentration. Treatment was performed with paired 96-well plates; one plate was exposed to 4 Gy and the other plate was an unirradiated control. One hour after irradiation, the medium was replaced with fresh medium alone. Four days later, the MTS assay was used to evaluate cell survival. Absorbance was measured at 490 nm with a microplate reader (Sprectramax, Molecular Devices, Sunnyvale, Calif.). Radiosensitivity factors (RSF) were calculated according to the following formula for each compound tested with the assay:
# [formula] Survival Assays
# The small chemical compound chemical library (Nanosyn, Inc.) was replicated in a 96-well format and compounds were dissolved in DMSO at a concentration of […]. Using the U251 glioma cell line, the radiosensitizing capability of 870 compounds was initially assayed within the library. The assay was optimized in terms of the number of cells, radiation dose used, and the number of days incubated so that a decrease in survival could be assessed. […] The structure of three novel radiosensitizing compounds is depicted in FIG. 1B.
# [3] = test system: U251 glioma cells; assay: Clonogenic survival assay, U251 cells; type: cell-based, human
# Protocol: Clonogenic survival assays were performed as described by Koumenis, et al., 2002, (Mol. Cell Biol. 22:7405-16), which reference is incorporated herein in its entirety. U251, HT-29, or A549 cells were plated at different densities in triplicate, treated with NS-123 or DMSO (alone) and irradiated 4, 8, or 12 hours later with a range of doses using ^137Cs γ-rays at a dose rate of ˜4 Gy/minute (min). One hour after irradiation, the medium was replaced with fresh medium without NS-123 or DMSO. The cells were fixed 7-14 days after IR and stained with crystal violet. Colonies greater than 50 cells were then counted and normalized against the non-irradiated controls for each treatment. […] NHA cells were plated in 24-well plates in quadruplicate at equal density, treated with equal volumes of NS-123 or DMSO (alone) and irradiated as described above. One hour after irradiation, the medium was replaced with fresh ABM. Five days later, the MTS assay was used to evaluate cell survival as above.
# The effects of μM doses of NS-123 on clonogenic survival of U251 cells were first determined without ionizing radiation (IR). […] Treatment with a 5 μM dose for 12 hours caused a modest (30%), but statistically significant decrease in survival.
# Next, the dose-dependent radiosensitizing effects of NS-123 (2.5 μM and 5.0 μM concentration) in U251 cells was determined (FIG. 4A). […] Therefore, NS-123 can act as a true radiosensitizer at low μM concentrations. Corresponding Dose Enhancement Ratios (DER) at 0.1 survival were: 1.3 (2.5 μM NS-123) and 2.0 (5.0 μM NS-123). The time-dependent radiosensitizing effects of 5.0 μM NS-123 in U251 cells was then investigated. […] Corresponding DER at 0.1 survival were: 1.2 (4 hour preincubation with NS-123), 1.4 (8 hour) and 1.9 (12 hour).
structure (smiles),measurement,setting,value
"CCC(=O)c1ccc(Br)c([N+](=O)[O-])c1 [NS-123, 4′-bromo-3′-nitropropiophenone]",mean time to reach Relative Tumor Volume (RTV)=10,[1]; NS-123 50 mg/kg i.p. x3 days + 5 Gy IR,20 days
same,mean time to reach Relative Tumor Volume (RTV)=10,[1]; NS-123 50 mg/kg i.p. x3 days + Sham IR,12 days
same,in vivo radiosensitizer enhancement ratio,[1]; ratio of tumor regrowth delay NS-123+IR / DMSO+IR,2.0
same,average Radiosensitivity factor (RSF),[2],4.62
same,clonogenic survival without IR,"[3]; U251, 2.5 μM for 12 hours, no IR",did not cause any significant decrease in survival
same,Dose Enhancement Ratio (DER) at 0.1 survival,"[3]; U251, 2.5 μM, 12 hours before IR",1.3
same,radiosensitization,"[3]; U251, 2.5 μM, IR dose of 2 Gy",Radiosensitization was evident
same,decrease in clonogenic survival without IR,"[3]; U251, 5 μM for 12 hours, no IR",30%
same,Dose Enhancement Ratio (DER) at 0.1 survival,"[3]; U251, 5.0 μM, 4 hour preincubation",1.2
same,Dose Enhancement Ratio (DER) at 0.1 survival,"[3]; U251, 5.0 μM, 8 hour preincubation",1.4
same,Dose Enhancement Ratio (DER) at 0.1 survival,"[3]; U251, 5.0 μM, 12 hour preincubation (time-response, FIG. 4B)",1.9
same,Dose Enhancement Ratio (DER) at 0.1 survival,"[3]; U251, 5.0 μM, 12 hours before IR (dose-response, FIG. 4A)",2.0
same,"loss of viability without IR, time-response","[3]; U251, 5 μM, various times, no IR",did not induce any significant loss of viability unless it was administered for 12 hours
same,"radiosensitization, high-density plated cells","[3]; U251 plated at high density, 30 μM 4 hour versus 5 μM 12 hour on low-density cells (data not shown)",comparable radiosensitization
